Patent US20230217925A1, “FENCLORIM SEED TREATMENT AS A BIOSTIMULANT” (THE BOARD TRUSTEES OF THE UNIVERSITY OF ARKANSAS, priority 2022, published 2023)

What was measured:
Type in all cases: in vivo
[1] = test system: sixteen of the most common rice cultivars planted in the state of Arkansas; experiment: Cultivar screening, fenclorim seed treatment, field plots, aerial image groundcover; settings: 2.5 g fenclorim per kg of seed vs 0; 45 days after emergence; averaged across all cultivars
Protocol: (§1) An experiment was conducted to screen for the effects of a fenclorim seed treatment across sixteen of the most common rice cultivars planted in the state of Arkansas. The cultivars screened in the study included ten long-grain inbreds, three medium-grain inbreds, and three long-grain hybrids: ‘Diamond’, ‘Jewel’, ‘DG363L’, ‘CLL 15’, ‘CLL 16’, ‘CLL 17’, ‘PVL02’, ‘PVL03’, ‘RTV7231MA’, ‘CLJ 01’, ‘Jupiter’, ‘Titan’, ‘Lynx’, ‘RT753XP’, ‘RT7321FP’, and ‘RT7521FP’. All seeds were treated with a base treatment comprising a standard rice insecticide (i.e., NipsIt®) and fungicide (i.e., a combination of metalaxyl, fludioxonil, carboxin, and thiram) using a commercial seed treater. Additionally, each seed was treated with 0 or 2.5 g fenclorim per kg of seed. Seed was planted on Apr. 19, 2021, utilizing nine-row plots (5.2 m by 3 m). Aerial images were captured using a DJI Mavic Air 2 45 days after emergence, and images were analyzed using Turf Analyzer.

[2] = test system: Diamond rice; experiment: Diamond rice evaluation in heavy clay soil, drone image groundcover; settings: 2.5 g fenclorim per kg of seed vs 0, 45 days after emergence
Protocol: as §1
An experiment was conducted to test whether fenclorim seed treatment would influence rice growth in a heavy clay soil. Diamond rice was planted on Apr. 22, 2021, using the same practices as the previous experiment, including a treatment with 0 or 2.5 g fenclorim per kg of seed.

[3] = test system: rice cultivar Diamond; experiment: Fenclorim dose-response study, seed treatment (groundcover, shoot numbers); settings: for Shoots (%), percentage of shoot numbers produced by control plants: 30 days after emergence; for Groundcover (%): 45 days after emergence
Protocol: (§2) On Apr. 17, 2021, an experiment was initiated to identify the best rate at which to apply fenclorim as a rice seed treatment. The experiment was conducted using four rice cultivars (Diamond, Titan, RT7521FP, and RT7321FP) and 5 rates of the fenclorim (0, 0.625, 1.25, 2.5, and 5 g/kg seed). Seeds were treated using the aforementioned methods with all seeds having the same base seed treatment. […] At 2.5 g fenclorim per kg of seed, there was a 22% increase (averaged across cultivars) in groundcover compared to the no fenclorim treatment at 45 days after emergence. In this study, rice plant heights and shoot numbers were measured 30 days after emergence. The heights of five random plants were measured per plot and shoot numbers were measured in two 0.5 m sections of row.

[4] = test system: rice cultivar RT7321FP; experiment: as above; settings: for Shoots (%), percentage of shoot numbers produced by control plants: 30 days after emergence; for Groundcover (%): 45 days after emergence
Protocol: as §2

[5] = test system: rice cultivar RT7521FP; experiment: as above; settings: for Shoots (%), percentage of shoot numbers produced by control plants: 30 days after emergence; for Groundcover (%): 45 days after emergence
Protocol: as §2

[6] = test system: rice cultivar Titan; experiment: as above; settings: for Shoots (%), percentage of shoot numbers produced by control plants: 30 days after emergence; for Groundcover (%): 45 days after emergence
Protocol: as §2

[7] = test system: four rice cultivars (Diamond, Titan, RT7521FP, and RT7321FP); experiment: Fenclorim dose-response study, results over all four cultivars; settings: for Increase over control % (groundcover): averaged over all four cultivars, 45 days after emergence
Protocol: as §2

[8] = test system: rice seeds of the cultivar Diamond; experiment: Greenhouse biostimulant experiment; settings: 2.5 g/kg of seed vs 0, 30 days after emergence, silt loam soil
Protocol: A greenhouse biostimulant experiment was performed in 2 experimental runs. Fenclorim was applied to rice seed at 0 or 2.5 g/kg of seed. Five rice seeds of the cultivar Diamond were planted in silt loam soil in 4″ diameter pots 0.5″ apart. At least 9 replications were performed per run. At 14 days after emergence, emerged rice was counted and thinned to 3 plants per pot. Data were collected 30 days after emergence. The leaf area of the rice plants in each pot was determined. Groundcover was determined based on the number of green leaf pixels from an overhead image. Shoot (aboveground) and root (belowground) biomass were determined, and total biomass was determined by adding the mass of the roots and shoots.

Compound: Clc1cc(Cl)nc(-c2ccccc2)n1 [fenclorim, 4,6-dichloro-2-phenylpyrimidine]
- increase in groundcover [1]: 7%
- increase in groundcover [2]: 4%
- Shoots (%), percentage of shoot numbers produced by control plants ([3]; 0.625 g/kg seed): 98.6%
- Groundcover (%) ([3]; 0.625 g/kg seed): 47.3%
- Shoots (%), percentage of shoot numbers produced by control plants ([3]; 1.25 g/kg seed): 111.1%
- Groundcover (%) ([3]; 1.25 g/kg seed): 54.6%
- Shoots (%), percentage of shoot numbers produced by control plants ([3]; 2.5 g/kg seed): 106.9%
- Groundcover (%) ([3]; 2.5 g/kg seed): 54.2%
- Shoots (%), percentage of shoot numbers produced by control plants ([3]; 5.0 g/kg seed): 100%
- Groundcover (%) ([3]; 5.0 g/kg seed): 52.2%
- Shoots (%), percentage of shoot numbers produced by control plants ([4]; 0.625 g/kg seed): 115.2%
- Groundcover (%) ([4]; 0.625 g/kg seed): 41.2%
- Shoots (%), percentage of shoot numbers produced by control plants ([4]; 1.25 g/kg seed): 110.3%
- Groundcover (%) ([4]; 1.25 g/kg seed): 46.0%
- Shoots (%), percentage of shoot numbers produced by control plants ([4]; 2.5 g/kg seed): 108.4%
- Groundcover (%) ([4]; 2.5 g/kg seed): 53.9%
- Shoots (%), percentage of shoot numbers produced by control plants ([4]; 5.0 g/kg seed): 112.3%
- Groundcover (%) ([4]; 5.0 g/kg seed): 50.3%
- Shoots (%), percentage of shoot numbers produced by control plants ([5]; 0.625 g/kg seed): 110.7%
- Groundcover (%) ([5]; 0.625 g/kg seed): 51.8%
- Shoots (%), percentage of shoot numbers produced by control plants ([5]; 1.25 g/kg seed): 112.4%
- Groundcover (%) ([5]; 1.25 g/kg seed): 52.5%
- Shoots (%), percentage of shoot numbers produced by control plants ([5]; 2.5 g/kg seed): 108.8%
- Groundcover (%) ([5]; 2.5 g/kg seed): 51.2%
- Shoots (%), percentage of shoot numbers produced by control plants ([5]; 5.0 g/kg seed): 111.9%
- Groundcover (%) ([5]; 5.0 g/kg seed): 55.9%
- Shoots (%), percentage of shoot numbers produced by control plants ([6]; 0.625 g/kg seed): 111.1%
- Groundcover (%) ([6]; 0.625 g/kg seed): 49.3%
- Shoots (%), percentage of shoot numbers produced by control plants ([6]; 1.25 g/kg seed): 110.5%
- Groundcover (%) ([6]; 1.25 g/kg seed): 47.3%
- Shoots (%), percentage of shoot numbers produced by control plants ([6]; 2.5 g/kg seed): 105.3%
- Groundcover (%) ([6]; 2.5 g/kg seed): 48.1%
- Shoots (%), percentage of shoot numbers produced by control plants ([6]; 5.0 g/kg seed): 102.4%
- Groundcover (%) ([6]; 5.0 g/kg seed): 50.6%
- rice plant heights ([7]; 0.625-5 g/kg seed vs 0, 30 days after emergence, five random plants per plot): not influenced
- shoot number, effect as the seed treatment rate increased ([7]; 0.625-5 g/kg seed vs 0, 30 days after emergence, two 0.5 m sections of row): an increase in shoot number was observed
- Increase over control % (groundcover) ([7]; 0.625 g/kg seed): 12%
- Increase over control % (groundcover) ([7]; 1.25 g/kg seed): 18%
- Increase over control % (groundcover) ([7]; 2.5 g/kg seed): 22%
- Increase over control % (groundcover) ([7]; 5.0 g/kg seed): 23%
- increase in aboveground biomass [8]: 14%
- increase in belowground biomass [8]: 63%
- increase in groundcover [8]: 15%
- increase in leaf area [8]: 23%
- increase in total biomass [8]: 40%
